Counter-ions that a name gives are not always drawn.
Columns and labels:
[1] = tested on: human endometrial adenocarcinoma Ishikawa cells; assay: Alkaline phosphatase activity in Ishikawa cells (Example 11); format: cell-based; details: for IC50: Homo sapiens, Ishikawa, 120 h, read-out: Inhibition of 1 nM E2 stimulation of alkaline phosphatase by tested compounds IC50; for Stimulation of alkaline phosphatase by tested compounds % of 1 nM E2 stimulation: intrinsic estrogenic activity
Method: The human Ishikawa cell line derived from a well differentiated endometrial adenocarcinoma was kindly provided by Dr. Erlio Gurpide, The Mount Sinai Medical Center, New York, N.Y. The Ishikawa cells were routinely maintained in Eagle's Minimum Essential Medium (MEM) containing 5% (vol/vol) FBS and supplemented with 100 U/ml penicillin, 100 μg/ml streptomycin, 0.1 mM Non-essential Amino Acids solution. Cells were plated in Falcon T75 flasks at a density of 1.5×10^6 cells at 37 C.
Twenty four hours before the start of an experiment, the medium of near confluent Ishikawa cells was replaced by fresh estrogen-free basal medium (EFBM) consisting of a 1:1 (v:v) mixture of phenol red-free Ham's F-12 and Dulbecco's Modified Eagle's Medium (DMEM) supplemented with 100 U/mL penicillin, 100 μg/mL Streptomycin, 2 mM glutamine, and 5% FBS treated twice with dextran-coated charcoal to remove endogenous steroids. Cells were then harvested by 0.1% pancreatin (Sigma) and 0.25 mM HEPES, resuspended in EFBM and plated in Falcon 96 well flat-bottomed microtiter plates at a density of 2.2×10^4 cells/well in a volume of 100 μl and allowed to adhere to the surface of the plates for 24 h. Thereafter, medium was replaced with fresh EFBM containing the indicated concentrations of compounds in a final volume of 200 μl. Cells were incubated for five days, with a medium change after 48 h.
At the end of the incubation period, microtiter plates were inverted and growth medium was decanted. The plates were rinsed with 200 μL by well of PBS (0.15M NaCl, 10 mM sodium phosphate, pH 7.4). PBS was then removed from the plates while carefully leaving some residual PBS, and the wash procedure was repeated once. The buffered saline was then decanted, and the inverted plates were blotted gently on a paper towel. Following replacement of the covers, the plates were placed at −80 C for 15 min followed by thawing at room temperature for 10 min. The plates were then placed on ice, and 50 μl of an ice-cold solution containing 5 mM p-nitrophenyl phosphate, 0.24 mM MgCl2, and 1 M diethanolamine (pH 9.8) was added. Plates were then warmed to room temperature, and the yellow color from the production of p-nitrophenyl was allowed to develop (8 min). Plates were monitored at 405 nm in an enzyme-linked immunosorbent assay plate reader (BIO-RAD, model 2550 EIA Reader).
Dose-response curves as well as IC50 values were calculated using a weighted iterative nonlinear squares regression.

[2] = tested on: ovariectomized female rats; assay: 34-week treatment with ethynyl estradiol, EM-652.HCl, Raloxifene and DHEA, body fat (Example 7); format: in vivo, rat; details: OVX rats, 34 weeks
Method: The objective of this study was to assess the effect of a combined treatment with EM-652.HCl, and DHEA on body fat and body weight parameters in ovariectomized rats. For this purpose, ovariectomized rats received daily administration of EM-652.HCl (1 mg/kg), and DHEA (80 mg/kg) alone or in combination, for 34 weeks. EM-652.HCl was administered orally while DHEA was applied topically on dorsal skin. One group of animals was orally treated with 17-ethynylestradiol (0.1 mg/kg) and Raloxifene (EM-1105; 1 mg/kg) for comparison.
Ten to twelve week-old female Sprague-Dawley rats (Crl:CD(SD)Br) weighing approximately 235-250 g at start of treatment were used. Eighty rats were randomly distributed between 7 groups of 11 to 12 animals per group as follows: 1) Intact control; 2) OVX control; 3) OVX+EE2 (0.1 mg/kg); 4) OVX+raloxifene (1 mg/kg); 5) OVX+EM-652.HCl (1 mg/kg); 6) OVX+DHEA (80 mg/kg); 7) OVX+EM-652.HCl+DHEA. On day 1 of the study, the animals of the appropriate groups were bilaterally ovariectomized (OVX) under isoflurane anesthesia. EM-652.HCl, raloxifene and EE2 (Steraloids) were administered once daily by oral gavage as suspension in 0.4% methylcellulose (0.5 ml/rat) for 34 weeks while DHEA was applied topically once daily on dorsal skin as a solution in 50% ethanol-50% propylene glycol (0.5 ml/rat) for the same time period. Approximately 24 hours after the last dosing, overnight fasted animals were killed by exsanguination at the abdominal aorta under isoflurane anesthesia. Left and right retroperitoneal adipose tissues were collected and weighed.
After 34 weeks of treatment, individual rats under anesthesia with isoflurane had their whole body skeleton scanned using dual energy x-ray absorptiometry (DEXA; QDR 4500A, Hologic, Waltham, Mass.) and a Regional High Resolution Scan software. The body composition (including fat percentage) was determined.
Data were expressed as the means±SEM.

[3] = tested on: ovariectomized female rats; assay: SERM comparison, energy balance and lipid-lipoprotein metabolism (Example 10); format: in vivo, Rattus norvegicus; details: OVX rats, 20 days; for Serum insulin (in words): 0.5 mg/rat; for Brown adipose tissue Lipoprotein lipase activity / Brown adipose tissue weight / Cumulative food intake / Serum glucose / Serum insulin / Serum leptin / Serum total cholesterol / Serum triglycerides / Soleus muscle Lipoprotein lipase activity / Soleus muscle weight / Total weight / VastusLateralis muscle weight / White adipose tissue inguinal Lipoprotein lipase activity / White adipose tissue inguinal weight / White adipose tissue retroperitoneal Lipoprotein lipase activity / White adipose tissue retroperitoneal weight: high carbohydrate diet, 0.5 mg/rat oral gavage
Method: For this purpose, tested compounds were administered by oral gavage for 20 days (0.5 mg/rat for each compound; 0.5 ml/rat) in 0.4% methylcellulose to ovariectomized female rats.
d) Diet: • During acclimation period, rats received a certified rodent diet (Lab Diet #5002, pellet) and tap water ad libitum while during study period, they received a high carbonhydrate diet (diet #3) and tap water ad libitum. The diet was composed of (g/100 g): Corn starch, 31.2; Dextrose, 31.2; Casein, 20.0; corn oil, 6.4; dl-Methionine, 0.3; Vitamine mix, 1.0; AIN-76 mineral mix, 4.9; fiber, 5.0. Rats were fasted (with access to water only) around 07 h00 the morning of their necropsy Randomization:
Test group: Seventy-seven rats were assigned to 8 groups of 9-10 rats for conduct of the study outlined below.
On day 0 of the study, rats from group 2 to 8 were ovariectomized (by bilateral flank incision) under Isoflurane anesthesia. Rats from group 1 were sham-operated.
Rats were weighed on day 0 (surgery) and then, every 2 days during study period as well as on the day of necropsy.
Food consumption was evaluated every 2 days.
In order to determine the effect of treatments on fat percentage, body composition was measured on Day 17 of the study using dual energy x-ray absorptiometry (DEXA; QDR 4500A, Hologic, Waltham, Mass.).
On day 21 of the study, approximately 24 hours after the last dosing and 6 hours of fasting, animals under Ketamine-Xylazine anesthesia were killed by exsanguination at the abdominal aorta.
Blood lipids (Total cholesterol and Triglycerides) and glucose were measured on frozen serum samples using the Boehringer Mannheim Diagnostic Hitachi 911 Analyzer (Boehringer Mannheim Diagnostic Laboratory Systems). Circulating hormones and substrates (Insulin and leptin) were measured on serum sample using the following kits: • Insulin: Linco RIA kit • Leptin: Linco RIA kit Organs and Tissues Collected
The following tissues were collected and weighed: • Muscle (right soleus and right VLM), fat (right retroperitoneal and right inguinal), and brown adipose tissue.
A piece of ˜0.1 g of all tissues (except uterus and vagina) were frozen in liquid nitrogen and kept at −80 C for later determination of lipoprotein-lipase (LPL) activity.

[4] = tested on: ovariectomized female rats; assay: Uterine weight, fat and lipid, 20-day treatment (Example 13); format: in vivo, Rattus norvegicus; details: 20 days
Method: The objective of this study was to compare the effect on uterine, weight, fat and blood lipids following treatment with EM-652.HCl, ERA-923 and lasofoxifene, administered alone or in combination with EM-652.HCl, to ovariectomized female rats. For this purpose, each compound was administered orally for 20 days to ovariectomized female rats and at the end of the treatment period, the uterus and fat were collected and weighed.
d) Diet: • Certified Rodent feed (Lab Diet #5002, pellets) and tap water were provided ad libitum. Randomization:
Seventy rats were separated into 7 groups of 9 to 11 animals for conduct of the study outlined below:
Animals from groups 2 to 9 were ovariectomized under Isoflurane-induced anesthesia on Day 7 of the study.
The vehicle or tested compounds were given as suspension in 0.4% methylcellulose by oral gavage (0.5 ml/gavage/rat) from Day 2 to Day 21 of the study.
Rats were weighed on Study Day 1 and at the necropsy (SD 22).
Approximately 24 hours after the last dosing, overnight fasted rats under Isoflurane-induced anesthesia were killed by exsanguination at the abdominal aorta.
Uteri and retroperitonal adipose tissue were removed and weighed.

[5] = Ishikawa cells, five days incubation
[6] = EE2 0.1, Raloxifene 1, EM-652.HCl 1 mg/kg oral, DHEA 80 mg/kg topical
[7] = OVX rats, commercial rodent diet, 0.5 mg oral, EM-652.HCl 2.5 mg in combinations

CC/C(=C(/c1ccc(OCCN(C)C)cc1)c1cccc(O)c1)c1ccccc1 [Droloxifene]
IC50 [1]: 291 ± 115 nM
Stimulation of alkaline phosphatase by tested compounds % of 1 nM E2 stimulation [1, 5]: 23.8 ± 3.1 (7) % of 1 nM E2 stimulation

C#C[C@]1(O)CC[C@H]2[C@@H]3CCc4cc(O)ccc4[C@H]3CC[C@@]21C [EE2, 17-ethynylestradiol]
increment of body fat and retroperitoneal adipose tissue by ovariectomy [2]: prevented
Fat % ([2]; DEXA, EE2 0.1, Raloxifene 1, EM-652.HCl 1 mg/kg oral, DHEA 80 mg/kg topical): 19.8 ± 1.9%
Left retroperitoneal adipose tissue [2, 6]: 1.15 ± 0.18 g
Right retroperitoneal adipose tissue [2, 6]: 1.29 ± 0.22 g

CC/C(=C(\c1ccccc1)c1ccc(/C=C/C(=O)O)cc1)c1ccccc1 [GW-5638]
Inhibition of 1 nM E2 stimulation of alkaline phosphatase by tested compounds IC50 ([1]; Ishikawa cells, five days incubation, 1 nM E2, antiestrogenic activity): No inhibition
Stimulation of alkaline phosphatase by tested compounds % of 1 nM E2 stimulation [1, 5]: 7.75 ± 5.5 (2) % of 1 nM E2 stimulation

CC/C(=C(\c1ccc(I)cc1)c1ccc(OCCN2CCCC2)cc1)c1ccccc1 [Idoxifene]
IC50 [1]: > 1000 nM
Stimulation of alkaline phosphatase by tested compounds % of 1 nM E2 stimulation [1, 5]: 25.1 ± 1.5 (5) % of 1 nM E2 stimulation

COc1ccc(-c2sc3cc(O)ccc3c2Oc2ccc(OCCN3CCCCC3)cc2)cc1.Cl [LY 353381]
Serum insulin (in words) [3]: decreased
Brown adipose tissue Lipoprotein lipase activity [3]: 888 ± 65 μU/g protein
Brown adipose tissue weight [3]: 0.368 ± 0.031 g
Cumulative food intake [3]: 312 ± 7 g
Serum glucose [3]: 17.1 ± 0.7 mmol/L
Serum insulin [3]: 0.104 ± 0.11 nmol/L
Serum leptin [3]: 1.22 ± 0.21 ng/mL
Serum total cholesterol [3]: 1.15 ± 0.08 mmol/L
Serum triglycerides [3]: 1.23 ± 0.28 mmol/L
Soleus muscle Lipoprotein lipase activity [3]: 10.1 ± 1.0 μU/g protein
Soleus muscle weight [3]: 0.092 ± 0.002 g
Total weight [3]: 231 ± 4 g
VastusLateralis muscle weight [3]: 0.955 ± 0.20 g
White adipose tissue inguinal Lipoprotein lipase activity [3]: 559 ± 165 μU/g protein
White adipose tissue inguinal weight [3]: 0.290 ± 0.038 g
White adipose tissue retroperitoneal Lipoprotein lipase activity [3]: 1365 ± 119 μU/g protein
White adipose tissue retroperitoneal weight [3]: 0.968 ± 0.120 g

Oc1ccc2c(c1)CC[C@H](c1ccccc1)[C@@H]2c1ccc(OCCN2CCCC2)cc1 [Lasofoxifene, cis-1R-[4′-pyrrolidino-ethoxyphenyl]-2S-phenyl-6-hydroxy-1,2,3,4,-tetrahydronapthalene D-(−)-tartrate salt]
Serum insulin (in words) [3]: decreased
Brown adipose tissue Lipoprotein lipase activity [3]: 982 ± 98 μU/g protein
Brown adipose tissue weight [3]: 0.244 ± 0.022 g
Cumulative food intake [3]: 283 ± 14 g
Serum glucose [3]: 15.8 ± 1.3 mmol/L
Serum insulin [3]: 0.095 ± 0.017 nmol/L
Serum leptin [3]: 0.97 ± 0.29 ng/mL
Serum total cholesterol [3]: 1.29 ± 0.06 mmol/L
Serum triglycerides [3]: 0.81 ± 0.21 mmol/L
Soleus muscle Lipoprotein lipase activity [3]: 10.9 ± 1.5 μU/g protein
Soleus muscle weight [3]: 0.096 ± 0.003 g
Total weight [3]: 210 ± 2 g
VastusLateralis muscle weight [3]: 0.800 ± 0.048 g
White adipose tissue inguinal Lipoprotein lipase activity [3]: 801 ± 138 μU/g protein
White adipose tissue inguinal weight [3]: 0.187 ± 0.023 g
White adipose tissue retroperitoneal Lipoprotein lipase activity [3]: 1417 ± 163 μU/g protein
White adipose tissue retroperitoneal weight [3]: 0.867 ± 0.132 g
OVX-induced increase in total serum cholesterol levels ([4]; 0.5 mg): completely prevented
increase of uterine weight compared to OVX control ([4]; 0.5 mg): 62%
prevention of body weight increase induced by ovariectomy ([4]; OVX rats, 0.5 mg): 127%
Cholesterol [4, 7]: 0.95 ± 0.09 mmol/L
Final Body Weight [4, 7]: 210 ± 3 g
Uterine Weight [4, 7]: 247.4 ± 9.1 mg
Stimulation of alkaline phosphatase by tested compounds % of 1 nM E2 stimulation [1, 5]: 18 % of 1 nM E2 stimulation

CC/C(=C(\c1ccc(O)cc1)c1ccc(OCCN(C)C)cc1)c1ccccc1 [OH-Tamoxifen]
IC50 [1]: 31.9 ± 6 nM
Stimulation of alkaline phosphatase by tested compounds % of 1 nM E2 stimulation [1, 5]: 32.4 ± 2.2 (8) % of 1 nM E2 stimulation

CN(C)CCOc1ccc(/C(=C(/CCCl)c2ccccc2)c2ccc(O)cc2)cc1 [OH-Toremifene]
Stimulation of alkaline phosphatase by tested compounds % of 1 nM E2 stimulation [1, 5]: 29.6 ± 2.1 (6) % of 1 nM E2 stimulation

— patent US8609695B2, “Methods of treating and/or suppressing insulin resistance” (Endorecherche, Inc., priority 1999, dated 2013)
